# Test results: patent US8044103B2, “Cyclic dipeptides and azetidinone compounds and their use in treating CNS injury and neurodegenerative disorders” (Georgetown University, priority 1998, dated 2011)
# Tests used:
# [1] = test system: mice following controlled cortical impact injury (CCI); assay: Beam walking task after controlled cortical impact injury (chronic neurological recovery); type: in vivo, Male C57Bl/6 mice
# Description: Male C57Bl/6 mice (20-25 g) were obtained from Taconic Farms (Germantown, N.Y.) and housed in an area directly adjoining surgical and behavioral rooms for at least 1 week prior to any procedures. All mice were maintained at a constant temperature (22±2° C.) and a 12 hr light/dark cycle, with lights on at 6 am and all behavioral testing performed during the light cycle. Food and water were available ad libitumn.
# The injury device consisted of a microprocessor-controlled pneumatic impactor with a 3.5 mm diameter tip. The impactor is vertically mounted on a mill table (Sherline, USA) which allows for precise adjustment in the vertical plane above the mouse head, which itself is secured to a stereotaxic apparatus (David Kopf Instruments, CA) attached to the instrument. The core rod of a linear voltage differential transducer (LVDT, Serotec, USA) is attached to the lower end of the impactor to allow measurement of velocities between 3.0 and 9.0 m/s. Velocity of the impactor is controlled by fine tuning both positive and negative (back) air pressures. An oscilloscope (Tektronix, USA) records the time/displacement curve produced by the downward force on the LVDT, allowing precise measurement of the impactor velocity.
# Surgical anesthesia was induced and maintained with 4% and 2% isoflurane respectively, using a flow rate of 1.0-1.5 l oxygen per minute. Depth of anesthesia was assessed by monitoring respiration rate and palpebral and pedal-withdrawal reflexes. The animal was then placed onto a heated pad and core body temperature was monitored and maintained at 38+/−0.2° C. The head was mounted in a stereotaxic frame and the surgical site clipped and prepared with a series of three Nolvasan scrubs followed by sterile saline rinses. A 10 mm mid-line incision was made over the skull, the skin and fascia reflected, and a 4 mm craniotomy made on the central aspect of the left parietal bone with a tissue punch (Roboz, USA). Great care was taken with the removal of the parietal bone to avoid injury to the underlying dura mater which was continuously bathed in sterile normal saline warmed to 37.5° C. The impounder tip of the pneumatic injury device was cleaned with a pad, soaked in absolute alcohol, positioned to the surface of the exposed dura and automatically withdrawn the 44 mm stroke distance. Following injury at a moderate (6.0 m/s velocity, 1 mm tissue deformation depth) level, the incision was closed with interrupted 6-0 silk sutures, anaesthesia was discontinued and the mouse was placed into a heated cage to maintain normothermia for 45 minutes post-injury. All animals were monitored carefully for at least 4 hours post-surgery and then daily. To minimize variation between animals due to anaesthesia during acute neurological testing, 20 minutes was allowed for surgery and 5 minutes for suturing for each animal.
# (§1) Conscious mice were placed in a mouse restrainer and injected via the lateral tail vein with either normal saline (injured controls; n=6), 1 mg/kg Compound 2a (n=8), Compound 10b (n=6), Compound 11b (n=6) or Compound 14c (n=6) at 30 minutes following controlled cortical impact injury (CCI). The values for n represents the number of mice in the particular treatment group. The investigator was blinded to drug treatment both at the time of surgery and for neurological and behavioral scoring.
# Chronic neurological recovery was evaluated for all animals using a beam walking task, a method which is particularly good at discriminating fine motor coordination differences between injured and sham-operated animals. The device consisted of a narrow wooden beam 6 mm wide and 120 mm in length which was suspended 300 mm above a 60 mm-thick foam rubber pad. The mouse was placed on one end of the beam and the number of footfaults for the right hindlimb recorded over 50 steps counted in either direction on the beam. A basal level of competence at this task was established before surgery with an acceptance level of <10 faults per 50 steps. […]
# [2] = test system: mice following controlled cortical impact injury (CCI); assay: Morris watermaze, working memory version, after controlled cortical impact injury; type: in vivo, Male C57Bl/6 mice; settings: 1.0 mg/kg at 30 min following CCI; day 24 after trauma; p<0.05
# Description: FIG. 7 provides a graph illustrating the latency of finding a hidden platform in a working memory version of the Morris watermaze for uninjured control mice (sham+saline) and mice treated with normal saline (CCI+saline) or 1.0 mg/kg Compound 2a (CCI+Compound 2a) at 30 min. following controlled cortical injury (CCI). Filled bars (▪) represent the first of two consecutive trials; unfilled bars ( ? ) represent the second of two consecutive trials. Results are expressed as daily means±SEM for each group over four trial pairs. * indicates p<0.05 with respect to uninjured controls (sham+saline); # indicates p<0.05 with respect to injured saline-treated controls (CCI+saline).
# as §1
# To determine the effect of CCI on working memory, the daily mean latency (+SEM) to find the goal platform on both trials was calculated for each group. […]
smiles,measurement,setting,value
"O=C1NC2(CCCCC2)C(=O)N2CCC[C@@H]12 [Compound 2a, Cyclo[(1-Amino-1-Cyclohexane-Carboxylic Acid)-Pro]]","beam walking, time course of recovery of function",[1]; 1 mg/kg i.v. at 30 min following CCI,began to show some recovery of function after 3 days
same,beam walking performance (right hindlimb footfaults) compared with saline-treated injured animals,"[1]; 1 mg/kg i.v. at 30 min following CCI, 14 days following injury, p<0.05",significant improvement in performance
same,beam walking outcome (right hindlimb footfaults) compared with saline-treated animals,"[1]; 1 mg/kg i.v. at 30 min following CCI, 21 days post-injury, p<0.01",continued improvement in outcome
same,dose with optimal effects in beam walking (inverted U-shaped dose-response curve),"[1]; 0.1, 1.0 or 10.0 mg/kg at 60 minutes following CCI",1 mg/kg
same,"latency to goal platform, first of trial pair (reference memory), versus untreated injured animals",[2],significantly improved
same,"latency to goal platform, second of trial pair (working memory), versus untreated injured animals",[2],significantly improved
